Reference: the supplement of paper PMC10307832

Assays:
Crizotinib = compound: C[C@@H](Oc1cc(-c2cnn(C3CCNCC3)c2)cnc1N)c1c(Cl)ccc(F)c1Cl [Crizotinib]; experiment: relative viability (nuclei count vs DMSO), 5 days (fraction); higher = more cells survive
Procedure, shortened: (§1)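 Lung cancer cell lines in 1536-well plates were exposed by pinning to five library-drug doses (not always all listed) √10 apart, following an overnight hold at 37 °C. MetaXpress counted Hoechst-stained nuclei from 4× images taken after 5 days without medium change. Viability is the median ratio of treated-well to vehicle-well nuclei across plates. Plates required control CV below 25% and at least one doubling.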

Olaparib = compound: O=C(c1cc(Cc2n[nH]c(=O)c3ccccc23)ccc1F)N1CCN(C(=O)C2CC2)CC1 [Olaparib]; experiment: as above
Procedure, shortened: as §1

With NCI-H1793 the relative viability (Crizotinib; 0.03162 µM) was 0.987, the relative viability (Crizotinib; 1 µM) was 1.09 and the relative viability (Olaparib; 0.08 µM) was 0.93. For the same cell line, the relative viability (Olaparib; 0.253 µM) was 0.856, the relative viability (Olaparib; 2.53 µM) was 0.824 and the relative viability (Olaparib; 8 µM) was 0.776. For the same cell line, the relative viability (Olaparib; 8 µM, anchor plate) was 0.911.
